Usually IC50 stands for the concentration at which inhibition is half-maximal.

The subject of one experiment is Human PMNs. The experiment is described as follows: LTB4-induced PMN aggregation. Format: cell-based. To be noted: in vitro, 20 nM LTB4, read-out: inhibits LTB4 -induced PMN aggregation, IC50. Here is the method: Neutrophils (PMN's) are prepared from uncoagulated human venous blood. Blood is dispersed into 50 ml polypropylene tubes containing 15 ml of HESPAN (Dupont, Wilmington, Del.), and mixed. Tubes are allowed to stand at room temperature for 40 minutes until most of the red blood cells sediment. The supernatants are removed and centrifuged for 5-10 min at 400×g. The remaining pellets are diluted in 70 ml of Phosphate Buffered Saline without calcium and magnesium (PBS without metals; GIBCO, Grand Island, N.Y.) and 35 ml of this suspension are placed in each of two polypropylene tubes containing 15 ml of Ficoll-Paque (Sigma, St. Louis, Mo.). Gradients are then centrifuged for 15 minutes at 420×g. […]
Human PMNs are prepared as previously described. Neutrophil aggregation is assessed by monitoring the intensity of light passing through a suspension of cells (Craddock et al., J. Clin. Invest. 60: 260-264, 1977) using a Payton dual channel aggregometer (model 300BD). […] 5 μl of 2 μM LTB4 in PBS (20 nM final concentration) are added and the aggregation response monitored for 3-5 min, the time required for optimal response, Compounds are solubilized in 0.01M DMSO and then diluted in PBS to 0.001 M. 5 μl of compound solution is added along with cytochalasin B and cells as described above. Following the preincubation period 5 μl of 2 μM LTB4 are added and aggregation is measured. […]

Experiment [1] deals with LTB4 -induced neutropenia. The experiment is described as follows: LTB4-induced neutropenia in the rat. Format: in vivo. The following applies: dose of about 0.5 mg./Kg p.o., determined at four hours after administration. Here is the method:
LTB4 -Induced Neutropenia in the Rat
Male Sprague Dawley rats (crl: CDBR; Charles River, Wilmington, Mass.) (250-300 grams) are fasted overnight prior to the experiment. At least six animals are used per treatment group. Rats are given vehicle or compound either intravenously or orally and at intervals after dosing, neutrophil counts are determined from blood samples obtained just prior to and 20 seconds after intravenous infusion of 200 ng LTB4. In studies where compound is administered orally, drug is given by gavage. When drug is administered intravenously, rats are first anesthetized with 50 mg/kg i.p. of Sodium Pentabarbital. The jugular vein is exposed and cleaned of the surrounding tissue. At 3, 4 or 18 hours following administration of compound or vehicle by either route, blood samples are taken (0.3 ml of blood in 1.5 ml polypropylene microcentrifuge tube containing 0.01 mi 7.5% EDTA). Blood neutrophil counts are determined using a Technicon H-1 hematology instrument. Antagonism of the LTB4 -induced neutropenia response for the compounds tested is calculated.

For `CC(C)N(C(=O)c1ccc(OCCCCCOc2ccc(C(N)=NO)cc2)cc1O)C(C)C` [Example 1, 4-[5-[4-[amino(hydroxyimino)methyl]phenoxy]pentyloxy]-2-hydroxy-N,N-bis(1-methylethyl)benzamide], the IC50 in the experiment with Human PMNs is about 10 nM. In addition, in experiment [1], the “inhibition of LTB4 -induced neutropenia in the rat” value is recorded as “causes inhibition”.

The values are drawn from US5455274A, “Hydroxyamidine derivatives” (Ciba-Geigy Corporation, priority 1992, dated 1995).
